The conditions of data set [1]: Tokumitsu et al. 2000; cited from earlier work.
Data set [2] has as its system Draining Lymph Nodes (LNs) from the Normal Breast Tissue. The data set can be described thus: Dynamic micro-MR mammo-lymphangiography after injection into normal mammary gland (Example 1). As to conditions: athymic nu/nu mice, 0.15 μmol Gd into the mammary gland; GPDM imaged at 12, 24, 36 min, then PAMAM-G6. Type of data set: in vivo, mice. The procedure: Mice were anesthetized with 1.15 mg sodium pentobarbital (Dainabot, Osaka, Japan), and then injected with 0.15-0.24 μmol Gd/5-8 μL of the PAMAM-G6 contrast agent into normal mammary glands or mammary tissue surrounding a tumor (peritumorally). Dynamic micro-MR images were obtained using a 1.5-Tesla superconductive magnet unit (Signa LX, General Electric Medical System, Milwaukee, Wis.) with a birdcage type coil of 3 cm diameter fixed by a custom made coil holder. Single and double “breast coils” used for imaging breasts in humans are commercially available, for example, from GE Medical Systems (Milwaukee, Wis.) and are routinely available in outpatient MRI centers. The mice were wrapped with gauze to stabilize their body temperature and were placed at the center of the coils.
In order to evaluate the lymphatic drainage from the normal mammary gland of either Balb/c mice (n=5) or athymic nu/nu mice (n=5), 3D-fast spoiled gradient echo (3D-fastSPGR (efgre3d package; Signa Horizon, GE); repetition time/echo time 19.2/7.2 msec; inversion time 47 msec; 31.2 kHz, flip angle 30°, 4 excitations; 36 slice encoding steps; scan time 4 min 49 seconds) with chemical shift fat-suppression was used 6, 12, 18, 24, 30, 36, 42, and 48 min after injection of the contrast agent. The coronal images were reconstructed with 0.6-mm section thickness every 0.3-mm. The field of view was 8×4 cm and the size of the matrix was 512×256. The slice data were processed into 3D images using the maximum intensity projection (MIP) method with the same window and level (window 3500 and level 2100) (Advantage Windows, General Electric Medical System). After imaging, the mice were sacrificed by carbon dioxide inhalation.
Athymic nu/nu mice (n=4) were anesthetized and injected with 0.15 μmol Gd of GPDM into the mammary gland, and images were taken 12, 24, and 36 min after injection. Following these three images, these mice were subsequently injected with 0.15 μmol Gd of PAMAM-G6 contrast agent in the mammary gland, and images were taken at 12 and 24 min post-injection of the PAMAM-G6 contrast agent (at 48 and 60 min post-injection of GPDM).

In data set [3] the test system is axillary lymph nodes and their lymphatic vessels. Kind of data set: Dynamic 3D-MR lymphangiography, effect of contrast agent size (Example 4). Type of data set: in vivo, athymic nu/nu mice. The procedure: Mice were anesthetized with 1.15 mg sodium pentobarbital (Dainabot, Osaka, Japan) by intraperitoneal injection. Then 0.15 μmolGd/5 μL of all nano-size contrast agents or 0.45 μmolGd/5 μL of Gd-[DTPA]-dimeglumine were injected into normal mammary glands or mammary tissue surrounding a tumor. Dynamic MR images were obtained using a 1.5-Tesla superconductive magnet unit (Signa LX, General Electric Medical System, Milwaukee, Wis.) with a birdcage type coil of 3 cm diameter fixed by a custom-made coil holder. The mice were wrapped with gauze to conserve their body temperature and were placed at the center of the coils.
In order to evaluate the effect of contrast agent molecular size on the ability to visualize the lymphatics and lymph nodes of athymic nu/nu mice, thirty five non-tumor bearing nu/nu mice were divided into seven groups (n=5). The mice were evaluated with 3D-fast spoiled gradient echo (3D-fastSPGR (efgre3d package; Signa Horizon, GE); repetition time/echo time 19.2/7.2 msec; inversion time 47 msec; bandwidth 31.2 kHz, flip angle 30°, 4 excitations; 36 slice encoding steps; scan time 4 minutes 49 seconds) with chemical shift fat-suppression at 6, 12, 18, 24, 30, and 36 minutes post-injection of each contrast agent. The coronal images were reconstructed with 0.6-mm section thickness every 0.3-mm. The field of view was 8×4 cm and the size of the matrix was 512×256. The slice data were processed into 3D images using the maximum intensity projection (MIP) method with the same window and level (window 3500 and level 2100) (Advantage Windows, General Electric Medical System). The enhancement ratio was calculated by taking the average signal intensity in the axillary lymph node and dividing it by the signal intensity in the adjacent muscle.

The test system is the same in data set [4]. The description is as above. Type of data set: in vivo, athymic nu/nu mice. As to conditions: triple dose, 3 min post-injection (data not shown).
In data set [5] the test system is deep lymphatic system (lymph nodes, thoracic duct). Kind of data set: Whole-body dynamic 3D-micro-MRL after intracutaneous injection, normal mice (Examples 2, 3). Type of data set: in vivo. As to conditions: for Number of Mice in Which the Thoracic Duct was Visualized/Number of Mice Examined: Normal Mice, 0.1 μmolGd intracutaneously. The procedure: The mice were anesthetized with 1.15 mg sodium pentobarbital (Dainabot, Osaka, Japan) by intraperitoneal injection, and then injected intracutaneously with 0.1 μmolGd of PAMAM-G8, DAB-G5, PAMAM-G4, Gadomer-17, or GPDM into four middle phalanges in all four extremities. Dynamic micro-MR images were obtained using a 1.5-Tesla superconductive magnet unit (Signa LX, General Electric Medical System, Milwaukee, Wis.) with a round birdcage type coil of 3 cm diameter fixed by a custom-made coil holder. Four to eight female mice (7 weeks old, 18-21 g body weight) in each group were used and each contrast agent was prepared at least three separate times for these imaging studies. The mice were wrapped with gauze to stabilize their body temperature and were placed at the center of the coils.
A 3D-fast spoiled gradient echo (3D-fastSPGR (efgre3d package; Signa Horizon, GE); repetition time/echo time 28.5/7.9 msec; inversion time 65 msec; 31.2 kHz, flip angle 30°, four excitations; 40 slice-encoding steps; scan time 7 min 36 seconds) with chemical shift fat-suppression was used 10, 20, 30, and 45 min after injection of the contrast agents. The coronal images were reconstructed with 0.6-mm section thickness at every 0.3-mm. The field of view was 6×3 cm and the size of the matrix was 512×256. The intensities of the regions of interest (for example, a whole axillary lymph node, and the liver) were measured, and then the time-intensity curves analyzed. The data were expressed as the axillary lymph node-to-muscle and the axillary lymph node-to-liver ratios. The slice data were processed into 3D images using the MIP method with the same window and level (window 3500 and level 2300) (Advantage Windows, General Electric Medical System). Two board-certified radiologists separately read a set of stereo views of 3D-MRL for all studies, and estimated the visualization of the thoracic duct. After imaging, the mice were sacrificed by carbon dioxide inhalation.
In this example, the PAMAM-G8 contrast agent is compared to GPDM. PAMAM-G8 was prepared as described in Example 2, and GPDM was purchased (Schering AG, Berlin, Germany). Animal models, administration of the contrast agents, and 3D-micro-MRL were as described in Example 2.

The mark [6] stands for this setting: mouse, in vivo, listed as Gd-DTPA.

Structures are written as SMILES. “Also recorded” adds a separate entry of the source.

With `CNC[C@H](O)[C@@H](O)[C@H](O)[C@H](O)CO.CNC[C@H](O)[C@@H](O)[C@H](O)[C@H](O)CO.O=C([O-])CN(CCN(CC(=O)[O-])CC(=O)O)CCN(CC(=O)[O-])CC(=O)O.[Gd+3]` [GPDM, gadopentetate dimeglumine, reference compound], the “Clearance from the body” value in data set [1] is recorded as “clear too rapidly from the body”. For the same compound, the “Visualization of draining lymph nodes and lymphatic vessels (FIG. 5)” value in data set [2] was “not well visualized”. In addition, the “Visualization of axillary lymph nodes and their lymphatic vessels” value in data set [3] (6-36 minutes post-injection into mammary gland) is recorded as “failed to opacify either the lymph nodes or the lymphatic vessels”. Also, the “Signal intensity of adjacent muscle in comparison to G6 and G8” value in data set [3] (setting [6]) was “significantly higher than those measured with G6 and G8; also recorded: higher signal in the adjacent muscle”. Further, the “Signal intensity within the axillary lymph nodes in comparison to G6 and G8” value in data set [3] (setting [6]) was “lower signal intensities; also recorded: significantly lower signal”. Moreover, in data set [4], the “Contrast between target lymph node and surrounding tissue” value is listed as “did not help to achieve good enough contrast”. In addition, in data set [5] (Example 2, FIG. 10B), the “Image enhancement after 45 minutes” value was “Virtually no image enhancement”. Also, the “Visualization of deep lymph nodes” value was “did not allow most of the lymph nodes to be visualized even at early times” in data set [5] (Example 2, normal mice, 10-45 min after injection) and “not with GPDM” in data set [5] (Example 3, FIG. 15). Moreover, the “Number of Mice in Which the Thoracic Duct was Visualized/Number of Mice Examined” value in data set [5] (10 min) was 2/5; in data set [5] (20 min), 0/5; in data set [5] (30 min) it was 0/5; in data set [5] (45 min) it was 0/5.

Values taken from patent publication US20060204443A1, “Methods for tumor treatment using dendrimer conjugates” (The Government of the USA as represented by the Secretary …, priority 2005, published 2006).
